Patent US6166038A, “Aminopyrazole derivatives” (Banyu Pharmaceutical Co., Ltd., priority 1996, dated 2000)

Biological target: T1, human NPY Y5 receptor (Homo sapiens, UniProt Q15761)
T1 construct: expressed in transfected cells; host or cells: COS-7, CHO and LM(tk-)
T1 sequence (Q15761 1-445): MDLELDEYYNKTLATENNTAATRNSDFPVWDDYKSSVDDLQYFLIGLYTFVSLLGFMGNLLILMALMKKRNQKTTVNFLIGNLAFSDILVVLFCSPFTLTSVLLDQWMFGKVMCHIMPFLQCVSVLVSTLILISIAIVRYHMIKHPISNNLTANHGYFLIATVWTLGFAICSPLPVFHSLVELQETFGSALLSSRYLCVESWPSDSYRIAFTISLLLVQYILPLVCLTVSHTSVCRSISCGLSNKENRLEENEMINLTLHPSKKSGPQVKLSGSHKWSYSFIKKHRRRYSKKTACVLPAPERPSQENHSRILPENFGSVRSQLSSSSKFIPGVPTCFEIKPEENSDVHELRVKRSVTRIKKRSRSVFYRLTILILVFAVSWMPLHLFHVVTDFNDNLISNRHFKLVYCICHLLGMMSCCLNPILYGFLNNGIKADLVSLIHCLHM
Test: test of inhibition of NPY binding ([125I] peptide YY binding to membranes of NPY Y5 receptor-expressing cells)
Settings: [125I] peptide YY, 20,000 cpm, 25° C., 2 hours, pH 7.4; membranes of transfected cells; read-out: IC50 value (inhibition of specific binding of peptide YY)
Description: cDNA Sequence encoding a human NPY Y5 receptor [International Publication Wo 96/16542] was cloned into expression vectors pcDNA3, pRc/RSV (manufactured by Invitrogen) and pCI-neo (manufactured by Promega). Using the cationic lipid method [see Proceedings of the National Academy of Science of the United States of America, vol.84, p.7413 (1987)], host cells COS-7, CHO and LM(tk-) (American Type Culture Collection) were transfected with the thus prepared expression vectors to obtain cells in which the NPY Y5 receptor had been expressed.
Each of the membrane preparations thus prepared from the cells in which the NPY Y5 receptor had been expressed was incubated together with each compound to be tested and 20,000 cpm of [^125 I] peptide YY (manufactured by Amersham) at 25° C. for 2 hours in an assay buffer solution (25 mM HEPES buffer, pH 7.4, containing 10 mM magnesium chloride, 1 mM phenylmethylsulfonyl fluoride and 0.1% bacitracin) and then, the reaction mixture was filtered through a glass filter GF/C. After washing with 50 mM Tris buffer, pH 7.4, containing 0.3% BSA, radioactivity on the glass filter was measured using a gamma counter. […]

IC50: 39 nM
SMILES: COc1ccc(-c2cc(NC(=O)C3CCN(c4cccc(Cl)c4)CC3)n[nH]2)cc1 [Example 4, 3-[1-(3-chlorophenyl)piperidin-4-yl]carbonylamino-5-(4-methoxyphenyl)pyrazole]
